According to a melting point compilation (Tetko et al.; mined from patent text by program, amines drawn as free bases though some values may be those of a salt):

Work on `CNc1nc(C=CC(=O)OC)c(-c2ccncc2)s1` yielded a melting point of 166 to 167 °C. In the case of `O=C1NCN2CCC1CC2`, the melting point is reported as 125 to 126 °C. In the case of `Cc1cccc(C)c1CNc1cc(C(=O)N(C)C)cc2c1nc(C)n2C`, the melting point is reported as 142 to 143 °C. In the case of `CC(NC(=NC#N)Nc1cccnc1)c1ccccc1` (stereo not given), the melting point is reported as 185 to 187 °C. Molecule `COc1cc(C(C)C)c2c(c1)S(=O)(=O)N(COc1cc(=O)n3c(n1)CCCC3)C2=O` has a melting point of 184 to 186 °C. With `CCOC(=O)c1ncn2c3cccc(Cl)c3c(=O)n(C)c12` the melting point was 248 to 254 °C. Work on `c1ccc(C(Nc2ccncc2)c2ccccc2)cc1` yielded a melting point of 148 to 150 °C. `CC(O)Cc1cccc(Nc2nccc(-c3sc(N)nc3-c3ccccc3)n2)c1` (stereo not given) gave a melting point of 219 to 220 °C. Molecule `CCCCOC1c2ccccc2C(=O)N(CC2CC2)C1(/C=C/C(N)=O)CNC(=O)OC(C)(C)C` (stereo not given) has a melting point of 198 to 199 °C. In the case of `CCn1ncc2c(NCc3ccc(OC)cc3)c3ccccc3nc21`, the melting point is reported as 179 to 180 °C. With `CN(C(=O)Nc1ccc(Cl)c(Cl)c1)S(=O)C(C)(C)C` (stereo not given) the melting point was 118 °C. Molecule `CCC1C(=O)Nc2cc3[nH]c(-c4ccc(NC(C)=O)cc4OC)nc3cc21` (stereo not given) has a melting point of 245 to 249 °C. Molecule `CC(=O)OC1CSC(Oc2cccnc2CN(C)C)C(OC(C)=O)C1OC(C)=O` (stereo not given) has a melting point of 105 °C. `O=C(CCc1cccnc1)NCCCC1CCN(C(c2ccccc2)c2ccccc2)CC1` showed a melting point of 109 to 110 °C. In the case of `COc1ccc(P(=O)(c2ccc(OC)cc2)c2ccc(OC)cc2)cc1`, the melting point is reported as 145 °C. Molecule `CC(=O)NCC1CN(c2ccc(C(=O)c3cnc4n3CCS4)cc2)C(=O)O1` (stereo not given) has a melting point of 259 to 260 °C. With `CC(C)(C)c1cc(/C=C/c2n[nH]c(=S)s2)cc(C(C)(C)C)c1O` the melting point was 248 to 249 °C. Molecule `CCc1ccc2c(c1)c(-c1ccccc1Cl)c(NC(=O)Nc1c(C)cccc1C(C)C)c(=O)n2C` has a melting point of 198 to 199 °C. Molecule `Cc1nc2ccc3c(c2o1)OC(CN1CC=C(c2c[nH]c4ccc(C#N)cc24)CC1)CO3` (stereo not given) has a melting point of 119 °C. `CCOc1cc(CF)nc2nc(S(=O)(=O)Nc3c(Cl)ccc(C)c3Cl)nn12` gave a melting point of 197 to 200 °C. `CCOC(=O)c1nnc2ccc([N+](=O)[O-])cc2c1O` showed a melting point of 294 to 296 °C. Molecule `CC(Oc1c(-c2ccc(S(C)(=O)=O)cc2)cnn(CC(F)(F)F)c1=O)c1ccc(F)cc1` (stereo not given) has a melting point of 133 to 135 °C. With `CC(c1oc2ccccc2c(=O)c1-c1ccccc1)n1nc(-c2ccc3cn[nH]c3c2)c2c(N)ncnc21` (stereo not given) the melting point was 176 to 178 °C. For `CCOc1ccccc1C(=O)Nc1cccc(C)c1C(N)=O`, the melting point was 166 to 168 °C. `CCCCCCCCCCCCCCCC(=O)OCC1(O)COC(O)(COC(=O)CCCCCCCCCCCCCCC)CO1` (stereo not given) gave a melting point of 95.2 °C. For `COC[C@H](C)Oc1cc(N(C)S(=O)(=O)c2ccccn2)c2[nH]c(C3=NCC(CN4CCS(=O)CC4)S3)cc2c1` (stereo not given in full), the melting point was 175 to 176 °C. With `Cc1sc(NC=O)c(C#N)c1Cl` the melting point was 258 °C. Work on `COC(=O)C1=C(C)NC(C2CCCCC2)=C(S(=O)(=O)N(C)C)C1c1cccc([N+](=O)[O-])c1` (stereo not given) yielded a melting point of 185 to 188 °C. Molecule `COc1cc(OC)nc(NC(=O)NS(=O)(=O)c2ccccc2C(=O)O)n1` has a melting point of 155 to 157 °C. In the case of `O=[N+]([O-])c1ccc2nc3c(nc2c1)OCC1CCCN31` (stereo not given), the melting point is reported as 234 to 237 °C. `C=C(CO)COC(=O)NCCCCCCCCCCCCCCC` showed a melting point of 60 to 62 °C. For `COc1ccc2[nH]c(SCc3nccc(N4CCOCC4)n3)nc2c1`, the melting point was 188 to 192 °C. With `CCCCc1c(-c2cc(C)c(O)c(C)c2)[nH]c2ccccc12` the melting point was 83.1 to 84.2 °C. Molecule `CC(C)n1nc(-c2sc(NC(=N)N)nc2-c2ccccc2)ccc1=O` has a melting point of over 250 °C. `CCc1oc2ccc(Cl)cc2c1C(=O)c1ccc(Cl)c(S(N)(=O)=O)c1` showed a melting point of 130 to 133 °C. With `O=C(Nc1ccc(C(F)(F)F)cc1)NC1CCOCC1` the melting point was 196 to 198 °C. Work on `CC(=O)c1cc(N=c2cc(C)n(C)c(N)n2)cc(C(C)=O)c1` yielded a melting point of 219 to 220 °C. In the case of `COC(=O)c1[nH]c2c(Cl)ccc(Cl)c2c1C`, the melting point is reported as 110 to 111 °C. `CS(=O)(=O)c1ccc(-c2cnn(Cc3cccnc3)c(=O)c2-c2ccc(F)cc2)cc1` showed a melting point of 160 to 161 °C. For `CC(C)=CCNC(=O)Cn1ccnc1[N+](=O)[O-]`, the melting point was 174 to 176 °C. In the case of `CCNC(=O)NC(=S)N1N=C(c2ccc([N+](=O)[O-])cc2)c2cc3c(cc2CC1C)OCO3` (stereo not given), the melting point is reported as 176 to 177 °C. `O=C1c2cccc3cc4ccccc4c(c23)C(=O)N1CCNCCNCCN1C(=O)c2cccc3cc4ccccc4c(c23)C1=O` gave a melting point of 203 °C. Molecule `COC(=O)c1cccc(NC(=O)CC(=O)c2ccccc2)c1C(=O)OC` has a melting point of 100 to 103 °C. In the case of `CC(C)C1COC(=O)N1C(=O)CCCCOCc1ccccc1` (stereo not given), the melting point is reported as 133 °C. In the case of `O=c1cccc(C(F)F)[nH]1`, the melting point is reported as 125 to 127 °C. `COc1ccc2c(c1)CCC(n1cc[nH]c1=S)C2` (stereo not given) gave a melting point of 226 to 227 °C. `O=C(Nc1ncco1)c1cnc2c(C(F)(F)F)cccc2c1O` gave a melting point of 304 °C. `CCN1CC2CCCC2C1CNC(=O)c1cc(S(N)(=O)=O)ccc1OC` (stereo not given) gave a melting point of 232 °C. For `COC(=O)CCCCCCCCCCCCCCCNc1ccc(C(=O)OC)cc1`, the melting point was 92 to 93 °C. `OC1(c2ccccn2)CCNCC1` gave a melting point of 128 to 132 °C. In the case of `COC(=O)c1ncc(Cl)nc1NCc1ccc(OC)c(Cl)c1`, the melting point is reported as 149 to 151 °C. For `Cc1c(Br)c(=O)c(C(=O)O)c(-c2ccccc2)n1C`, the melting point was 252 to 253 °C. Work on `CCCCCCC(C(=O)O)c1cccc(Oc2ccccc2C)c1O` (stereo not given) yielded a melting point of 65 to 66 °C. For `Cc1ccc(S(=O)(=O)OCC2Cn3c(nc4ccccc43)-c3ccccc3O2)cc1` (stereo not given), the melting point was 166 °C. Work on `CCOC(=O)Oc1ncc(F)c(N=CN(C)C)n1` yielded a melting point of 124 to 126 °C. Work on `CS(=O)(=O)Nc1ccc(NC(=O)c2c[nH]c(=S)n2C2CCc3c(F)cc(F)cc3C2)cc1` (stereo not given) yielded a melting point of 225 to 230 °C. In the case of `CC(=O)NC(C)COC1CCC(c2nc3ccc(OCC4CC4)cc3o2)CC1` (stereo not given), the melting point is reported as 131 to 132 °C. In the case of `CC=Cc1cc(-c2ccc(F)cc2)cc(C(=O)O)c1O`, the melting point is reported as 196 to 200 °C. In the case of `Cc1nc(N2C[C@@H](C)C[C@H](C)C2)c2nc(-c3ccccc3)cc-2[nH]1` (relative stereo), the melting point is reported as 226 to 227 °C. For `O=C(Nc1ccc(Cl)c(C(F)(F)F)c1)N1COc2cc(Oc3ccnc(Cl)n3)ccc21`, the melting point was 140 to 142 °C. In the case of `COP(=O)(OC)C(O)=Cc1ccccc1F`, the melting point is reported as 71 to 73 °C. `COCC#CCCCCC12OCC(C(C)(C)C)(CO1)CO2` gave a melting point of 47 to 49 °C. Work on `Cc1cc(-c2cnn3c(C(F)(F)F)cc(-c4ccc(Cl)c(Cl)c4)nc23)cc(C)n1` yielded a melting point of 281 °C. `CCNC(=O)Nc1cc(-c2c(-c3ccc(F)c(C)c3)nc3ccc(NC)nn23)ccn1` gave a melting point of 263 to 264 °C. Work on `O=C(Nc1cc2c(cn1)[nH]c1ccccc12)c1cccs1` yielded a melting point of 109 to 125 °C. Work on `Cc1ccc(N=C2NCCN2)c(Cl)c1Cl` yielded a melting point of 158 to 162 °C. With `CCOC(=O)C1=C(C)NC(C=O)=C(C(=O)OCC)C1c1cc([N+](=O)[O-])ccc1Cl` (stereo not given) the melting point was 172 to 173 °C. Molecule `COc1c(CC#N)c2c(c3c1OC(C)(C)C3)C(c1ccccc1)=NC(C)(C)C2` has a melting point of 95 to 96 °C. `CCCCOc1c(CNC(=O)OC(C)(C)C)n(CC(C)C)c(=O)c2ccc(-c3nc(C(N)=O)cs3)cc12` gave a melting point of 195 to 196 °C. `COc1cc(C=C(C#N)C(=O)Nc2ccccc2)cc(Cl)c1O` gave a melting point of 273 °C.
